Data reported in patent US10286039B2, “Compositions and methods for treating neutropenia” (Children's Hospital Los Angeles, priority 2014, dated 2019).

Tests used:
S. Aureus [1] = experiment: Neutrophil bactericidal activity and production, neutropenic mice at neutrophil-recovery stage, lower dose; type: in vivo, Mice (C57BL6/J)
Description: Mice (C57BL6/J) were randomly divided into five groups (3 control and 4 for each experimental group, n=19 mice). As illustrated (FIG. 8a), mice were given regimens 2 days post-CPA injection (200 mg/kg). After consecutive 3 days of treatment, mice were challenged with S. Aureus for up to 16 hrs before euthanasia. We found a significant increase of peripheral blood (PB) neutrophils in all groups after bacterial infection (FIG. 8b). PB collected at 3 and 16 hrs-post infection was used for analyzing of neutrophil bactericidal activities. […] However, with low doses of Am80-GCSF treatment, Am80 can effectively differentiate GCSF-regenerated granulocytic precursors into mature neutrophils against microbial infection. P<0.05; **: P<0.01; ***: P<0.005.

S. aureus [2] = experiment: Neutrophil bactericidal activity, neutropenic mice at neutrophil-decrease stage, lower dose; type: in vivo, C57BL/6J mice; conditions: for neutrophil induction by bacterial infection: neutrophil-decrease stage, Vetscan analysis of PB
Description: Mice (C57BL6/J) were randomly divided into five groups (3 control and 4 for each experimental group, n=19 mice). C57BL/6J mice (n=19) were randomly divided into five groups (3 for control and 4 for each of experimental groups). The procedures for induction of mouse neutropenia and treatment are the same to the medium dose test (see slide 6). Mice were challenged with 6.3×10^6 CFU of S. aureus on day 2 via tail vein injection. After 3 hrs infection, each 100 μl blood was collected from tails for determining initial bactericidal activities of neutrophils. The mice were sacrificed on day 3, by which PB and spleen were harvested. (FIG. 7A). Vetscan analysis of WBC and neutrophils in PB was performed (FIG. 7B). Except blank mice, neutrophil induction was not observed in all other groups (FIG. 7C-E). Bactericidal activities of neutrophils were determined 3 hr (panel C) and 16 hrs post-infection (panel D) in PB as well as in spleen (panel E), using blood agar analysis of viable extracellular bacteria.

CD34+ cells = experiment: Western blot and gene transcription in CD34+ cells; type: cell-based
Source text: A novel gene transcription pattern is induced by Am80, in contrast to All-trans retinoic acid (ATRA or RA).

S. aureus [3] = experiment: Neutrophil bactericidal activity, neutropenic mice at neutrophil-decrease stage, medium dose; type: in vivo, C57BL/6J mice; conditions: for neutrophil induction by bacterial infection: neutrophil-decrease stage, Vetscan analysis of PB
Description: FIG. 6A experimental design. C57BL/6J mice (n=19) were randomly divided into five groups (3 for control and 4 for each of experimental groups). Mouse neutropenia was induced by IP injection of CPA on day 0. After 4 hrs of CPA injection, different regimens were given to mice once a day, with Am80 by oral or GCSF by SC or vehicle by oral. Mice were challenged by 6.3×10^6 CFU of S. aureus on day 2 via tail vein injection. After 3 hrs infection, each 100 μl blood was collected from tails for analysis of initial bactericidal activity of neutrophils. The mice were sacrificed 16 hrs post-infection, by which PB and heart were harvested. (FIG. 6B) Vetscan analysis of WBC and neutrophils in PB. Except blank mice, neutrophil induction was not observed in all other groups (FIG. 6C-E). Bactericidal activities of neutrophils were determined 3 hr (FIG. 6C) and 16 hrs post-infection (FIG. 6D) in PB as well as in heart (panel E), by using blood agar analysis of viable extracellular bacteria. […] A+G: Am80-GCSF.

neutropenic mice = experiment: Neutrophil recovery in CPA-induced neutropenic mice at neutrophil-decrease stage; type: in vivo, C57BL6/J mice
Description: To evaluate Am80 effect in vivo, we first tested half maximal effective concentration (EC50) of different human equivalent high, medium, and low doses of Am80 and GCSF (FIG. 5a) on regenerating mature neutrophils in neutropenic mice. Normal C57BL6/J mice were injected with a single dose of cyclophosphamide (CPA) to reduce mouse neutrophils. At 4 hr post-injection of CPA, mice were treated with vehicle, Am80, GCSF, or Am80-GCSF for consecutive 3 days before mice were sacrificed (FIG. 5b). […] Data represent 2 independent experiments with similar results.

AML BM primary blasts = experiment: Proliferation of primary blasts from acute myeloid leukemia patients; type: cell-based, human
Description: Proliferation of PB primary blasts from acute myeloid leukemia patients was assayed (FIG. 13A) and quantified P<0.05 (FIG. 13B). Granulocytic morphology of AML PB primary blasts was analyzed (FIG. 13C) and quantified; Am80 vs. G-CSF, P<4.0E-8; Am80 vs. control, P<6.02E-7 (FIG. 13D).
Proliferation of BM primary blasts from acute myeloid leukemia patients was assayed (FIG. 13E) and quantified at day 8, Am80 vs. G-CSF, P<0.008; G-CSF vs. control, P<0.032 (FIG. 13F). Granulocytic morphology of AML BM primary blasts was analyzed (FIG. 13G) and quantified; Am80 vs. G-CSF, P<9.9E-4; Am80 vs. RA, P<1.0E-4 (FIG. 13H).

NB4 cells = experiment: Proliferation, granulocytic differentiation and ROS production in NB4 cells; type: cell-based; conditions: day 6, in the presence of either fMLP or PMA
S. Aureus [4] = experiment: Survival of neutropenic mice enduring continual bacteremia; type: in vivo; conditions: treatment 24 hrs post-CPA
Description: If Am80 can indeed differentiate GCSF-regenerated great amount of granulocytic precursors into mature neutrophils against infection, Am80-GCSF combination should effectively reduce infection-related mortality in cancer chemotherapy induced neutropenia. We tested this hypothesis by using neutropenic mice experiencing bacteremia through entire neutropenia period. As illustrated (FIG. 9A), mice were given different regimens 4 hrs post-CPA injection for up to day 8. S. Aureus infection was performed on day 3, and survival rate was calculated on day 9. […] To evaluate bactericidal ability of regenerated neutrophils in survived mice, the survived blank and Am80-GCSF mice on day 11 were further infected with S. Aureus for 15 min before euthanasia. A parallel analysis of freshly isolated PB with both Giemsa and Gram stains determined neutrophil phagocytosis in infected mice vs. free of bacteremia in non-infected mice (FIG. 9E). Since GCSF is usually provided to CCIN ≥24 hrs post-chemo drug, we further tested low and medium doses of Am80-GCSF treatment 24 hrs post-CPA, as illustrated (FIG. 9F, 9J), with two independent experiments for each of doses.

Molecule | neutrophil production in BM and PB (S. Aureus [1]) | neutrophil bactericidal activity (S. aureus [2]; 3 hr and 16 hrs post-infection in PB and spleen, viable extracellular bacteria) | neutrophil induction by bacterial infection (S. aureus [2]) | C/EBPε, CD18, and granule LL-37 mRNA levels (CD34+ cells) | p21Cip/Kip mRNA levels (CD34+ cells) | MAT1 fragmentation (CD34+ cells; Western blot) | retinoic acid receptor (RARα) hypophosphorylation (CD34+ cells; Western blot) | neutrophil bactericidal activity (S. aureus [3]; 3 hr and 16 hrs post-infection in PB and heart, viable extracellular bacteria) | neutrophil induction by bacterial infection (S. aureus [3]) | sustaining neutrophil levels (PB) (neutropenic mice; low and medium doses, 3 days treatment from 4 hr post-CPA, compared to all other treatments) | granulocytic morphology differentiation (PB) (neutropenic mice; low doses vs medium doses) | growth rate of AML BM primary blasts (AML BM primary blasts; G-CSF vs. control, P<0.018) | growth of non-APL AML patient blasts (AML BM primary blasts; compared to those treated with Am80 or ATRA) | neutrophil bactericidal activity (killing assays) (S. Aureus [1]; PB at 3 and 16 hrs post-infection) | ROS production (NB4 cells) | differentiation of 3rd layer BM cells, granulocytic morphologic analysis (neutropenic mice; medium dose GCSF vs low doses of Am80-GCSF) | recovery of 3rd layer BM cells (neutropenic mice; medium dose, Percoll separation of bone marrow cells) | survival rate (S. Aureus [4]; low-dose test, S. Aureus infection) [%] | survival rate (S. Aureus [4]; medium-dose test, no statistical difference between groups) [%]
CC1(C)CCC(C)(C)c2cc(NC(=O)c3ccc(C(=O)O)cc3)ccc21 [Am80, tamibarotene] | induced least number of neutrophils in both BM and PB | greater bactericidal activity than those induced by G-CSF or Am80+GCSF | not instigated | significant up-regulation | decrease | progressive induction | progressive induction | significantly increased neutrophil bactericidal activity | not instigated | better EC50 effect on sustaining neutrophil levels | enhanced granulocytic morphology differentiation better than did medium doses |  |  |  |  |  |  |  | 
GCSF: granulocyte colony-stimulating factor (protein, UniProt P09919 31-207, looked up) Granulocyte …: TPLGPASSLPQSFLLKCLEQVRKIQGDGAALQEKLVSECATYKLCHPEELVLLGHSLGIPWAPLSSCPSQALQLAGCLSQLHSGLFLYQGLLQALEGISPELGPTLDTLQLDVADFATTIWQQMEELGMAPALQPTQGAMPAFASAFQRRAGGVLVASHLQSFLEVSYRVLRHLAQP | induced significantly more neutrophils in BM while similar amount in PB compared to Am80-GCSF |  | not instigated |  |  |  |  |  | not instigated |  |  | Higher growth rate | promotes the growth | significantly low bactericidal activity compared to those induced by Am80-GCSF | fails to induce ROS production | less differentiated than those induced by low doses of Am80-GCSF | induced highest recovery | 12.5 | 11.1
